Reference: EP0671173A1, “Use of a tricyclic derivative for producing a medicament for the treatment of cognitive and memory disorders” (ADIR ET COMPAGNIE, priority 1994, dated 1995)

Assays:
[1] = tested on: souris mâles de la lignée BALB/c; assay: T-maze: acquisition and retention of a simple spatial discrimination in the mouse; type: in vivo; conditions: 10 mg/kg i.p. 30 minutes before the test; for Acquisition de la discrimination : Nombre de réponses correctes sur les 20 premiers essais de l'épreuve: day 3, 12 BALB/c mice per group; for Acquisition de la discrimination : Nombre de réponses correctes sur les 20 premiers essais de l'épreuve / Rétention de la discrimination : Essais au critère: mean ± standard error; for Rétention de la discrimination : Essais au critère: day 4 (24 h after acquisition), criterion 5/5; for Rétention : Réponses correctes sur les cinq premiers essais: placebo 3,0 ± 0,21
Description: Comparaison des effets de la tianeptine et de l'isomère (+) de celle-ci sur l'alternance spontanée, l'acquisition et la rétention d'une discrimination spatiale simple (labyrinthe en T) chez la souris.
Le principe du test s'appuie sur la tendance innée qu'ont les mammifères confrontés à un choix entre deux directions à prendre, à aller explorer le lieu qui leur est le moins familier. Un animal placé plusieurs fois successivement à l'entrée d'un labyrinthe en T se dirigera de préférence vers le bras qu'il n'a pas visité précédemment. Pour que ce comportement apparaisse, il est évidemment nécessaire que l'animal se souvienne du dernier bras visité. Ce souvenir met en jeu la mémoire dite de travail. La souris est soumise à une phase d'apprentissage (acquisition) pendant laquelle elle doit choisir plusieurs fois, de suite entre les deux bras, jusq'uà ce qu'elle ait opté cinq fois de suite pour un bras déterminé par l'expérimentateur. Pour apprécier si l'animal a bien retenu ce qu'il a appris au cours de l'épreuve d'acquisition, il est replacé 24 heures plus tard dans la même situation. Le degré de rétention sera mesuré par le nombre d'épreuves subies avant la réussite de cinq essais consécutifs.
Animaux : 36 souris mâles de la lignée BALB/c, vierges de toute expérimentation et âgées de 14 à 16 semaines, sont utilisées. Elles sont placées, 15 jours avant le début des expériences, dans des cages individuelles (animalerie climatisée (22°C) et pourvue d'un cycle artificiel lumière-obscurité de 12 heures (7h ON)).
Appareil : C'est un labyrinthe en T construit en plexiglas de couleur grise. Le couloir central et les deux bras d'arrivée mesurent 35 cm de long, 10 cm de large et 20 cm de haut. Le compartiment de départ (10 x 12 cm) est séparé du couloir central par une porte à guillotine. L'entrée de chaque bras est également pourvue d'une porte. L'appareil utilisé est semi-automatique : l'alimentation des mangeoires, l'ouverture et la fermeture des portes sont commandées par un micro-ordinateur selon le protocole pré-établi.
Protocole : Toutes les épreuves se déroulent entre 9h et 16h et durant 4 jours (de J1 à J4) sans interruption. La ration alimentaire des animaux est réduite de façon à atteindre un poids corporel de 83-84 % du poids ad libitum pour les épreuves d'habituation (J1 et J2) et de 87-88 % lors des épreuves d'alternance et de discrimination spatiale (J3 et J4).
Habituation (J1-J2) : L'expérience proprement dite est précédée de deux séances d'habituation de 10 minutes (exploration libre, une séance par jour). L'animal est simplement placé dans l'appareil toutes portes ouvertes.
Alternances spontanées et acquisition de la discrimination (J3) : Ces deux épreuves ont lieu le lendemain sans interruption. Elles sont destinées à mesurer l'alternance (6 premiers essais) et la vitesse d'acquisition de la discrimination spatiale (essais suivants). Lors des 6 premiers essais, la nourriture est disposée à l'extrémité de chacun des deux bras. Lors de chaque essai, l'animal est placé dans le compartiment de départ pendant 30 secondes (intervalle entre essais). La porte donnant accès au couloir central est ouverte et la souris peut choisir entre les deux bras où elle reste enfermée pendant 30 secondes. On constate que l'animal normal alterne ses choix successifs (65 % d'alternance environ). Apartir du 6ème essai, la nourriture n'est plus disposée que dans un seul bras, toujours le même; le bras choisi est celui qui a été le moins visité au cours des 6 premiers essais. L'épreuve se poursuit alors jusqu'à ce que l'animal atteigne un critère de 5 bonnes réponses sur 5 essais consécutifs.
Rétention de la discrimination spatiale (J4) : Elle se déroule dans les mêmes conditions que l'acquisition (même bras renforcé) et se poursuit pendant un minimum de 10 essais ou, au-delà, jusqu'à l'atteinte du critère de 5/5. Le nombre d'essais est limité à 20. […]

[2] = tested on: souris mâles de la lignée BALB/c; conditions: 10 mg/kg, mouse; earlier results (Jaffard et coll., Behav. Pharmacol., 1991); cited from earlier work

Structure (SMILES) | Acquisition de la discrimination : Nombre de réponses correctes sur les 20 premiers essais de l'épreuve [1] | Rétention de la discrimination : Essais au critère [1] | Rétention : Réponses correctes sur les cinq premiers essais ([1]; day 4) | alternance spontanée, acquisition et rétention d'une discrimination simple (labyrinthe en T) [2] | Rétention : Réponses correctes sur les dix premiers essais ([1]; day 4)
CN1c2ccccc2C(NCCCCCCC(=O)O)c2ccc(Cl)cc2S1(=O)=O (racemic) [Tianeptine, tianeptine] | 12,75 ± 0,77 | 8,58 ± 0,60 essais | n'a pas d'effet | facilitait | –
CN1c2ccccc2C(NCCCCCCC(=O)O)c2ccc(Cl)cc2S1(=O)=O (single isomer, unassigned; (+)) [Isomère (+), (+)7-[(3-chloro-6-méthyl-5,5-dioxo-6,11-dihydrodibenzo[c,f]-[1,2]-thiazepin-11-yl)amino]heptanoatede sodium] | 14,83 ± 0,75 | 7,83 ± 0,74 essais | 3,92 ± 0,15 | – | performances supérieures (p<0,02) à celles du groupe tianeptine
